Laboratory results taken from article PMC3303745, “Elucidation of the Rotavirus NSP4-Caveolin-1 and -Cholesterol Interactions Using Synthetic Peptides” (Journal of Amino Acids, 2012).
Values joined by “and” are separate entries in the source; they are usually repeats but may differ in a detail not shown here. Equal values may be shown once.

T1: Cy3-N-Cav_(19-40) (caveolin-1 aa 19-40, Cy3-labelled) (not fully specified)
T1 construct: also called Cy3-Cav_(19-40); N-caveolin-1_(19-40)
T1 peptide: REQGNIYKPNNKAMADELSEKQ


Experiments:
[1] = Circular dichroism, percent α-helix of single peptides; type: physicochemical; details: CD, from molar ellipticity at 222 nm, mean ± SD, n = 4; for Percent α-helix, 50% TFE: peptide 15–35 μM in 50% trifluoroethanol; for Percent α-helix, 1 mM SUV: peptide 15–35 μM with 1 mM SUV (55 : 35 : 10, POPC/cholesterol/DOPS); for Percent α-helix, Aqueous Buffer: peptide 15–35 μM, 10 mM potassium phosphate buffer pH 7.4
NSP4_112-140 [2] = molecular target: T2, NSP4_112-140 (Rotavirus A, UniProt P04512); type: physicochemical
RV-infected MDCK cells = test: Treatment of RV-infected MDCK cells with cholesterol-altering drugs, NSP4 transport by immunofluorescence; type: cell-based; details: RV-infected MDCK cells (MOI 2, 12 hpi), treated in triplicate at recommended effective dose; stained with anti-NSP4_150-175 and anti-rabbit-IgG-FITC; compared to untreated infected cells
Method: MDCK cells were infected with RV at a multiplicity of infection (MOI) of 2 and incubated for 12 hpi. The cells were washed and treated in triplicate with the cholesterol altering drugs, fillipin [40], and nystatin [41] exactly as described. Chlorpromazine and nocodazole were utilized as negative and positive controls, respectively. Cells were fixed with methanol : acetone (1 : 1) at −20°C for 10 min, blocked with 5% dry milk for 20 min, incubated with anti-NSP4_150-175 and anti-rabbit-IgG-FITC, and examined under a UV microscope (Zeiss). The cell surface carefully was observed and the presence or absence of fluorescence carefully noted. Comparisons also were made to untreated cells. Primary and secondary antibody controls were negative. To ensure the lack of drug toxicity, a separate set of cells were treated and then stained with trypan blue.

[3] = cited from earlier work
NSP4_112-140 [4] = molecular target: T2, NSP4_112-140; type: binding
[5] = molecular target: T1, Cy3-N-Cav_(19-40) (caveolin-1 aa 19-40, …); test: other fluorescence titration; details: both partners purified

| Molecule | Percent α-helix, 50% TFE [1] | Percent α-helix, 1 mM SUV [1] [%] | Percent α-helix, Aqueous Buffer [1] [%] | % helical content, Observed, 1 mM SUV (NSP4_112-140 [2]) [%] | % helical content, Observed, 50% TFE (NSP4_112-140 [2]) [%] | % helical content, Observed, Aqueous buffer (NSP4_112-140 [2]) [%] | % helical content, Theoretical, 1 mM SUV (NSP4_112-140 [2]) [%] | % helical content, Theoretical, 50% TFE (NSP4_112-140 [2]) [%] | % helical content, Theoretical, Aqueous buffer (NSP4_112-140 [2]) [%] | Results: NSP4 transport to the cell surface (RV-infected MDCK cells) | further results |
| --- | --- | --- | --- | --- | --- | --- | --- | --- | --- | --- | --- |
| EAVGKIFSNVRINLQKEI [C-Cav161-178, caveolin-1 C-terminal peptide aa 161–178] | 57.4 ± 4.4% | 42.5 ± 10.6 | 43.4 ± 3.8 | 51.9 ± 2.4 | 44.2 ± 10.6 | 25.0 ± 1.7 | 49.5 ± 6.2 | 67.8 ± 3.2 | 35.3 ± 1.6 | – | – |
| CCCCC[C@@H](O)[C@H]1C(=O)O[C@H](C)[C@@H](O)/C=C/C=C/C=C/C=C/C=C(\C)[C@@H](O)C[C@H](O)C[C@H](O)C[C@H](O)C[C@H](O)C[C@H](O)C[C@@H]1O [Fillipin] | – | – | – | – | – | – | – | – | – | Disrupted NSP4 transport | – |
| COC(=O)Nc1nc2ccc(C(=O)c3cccs3)cc2[nH]1 [Nocodazole] | – | – | – | – | – | – | – | – | – | Disrupted NSP4 transport | – |
| FEDVIAEPEGTHS [Cav68-80, caveolin-1 central region peptide aa 68–80, negative control] | 23.1% and 24.4 ± 0.8% | 21.4 ± 2.0 | 23.4 ± 0.9 | 31.3 ± 0.2 | 45.9 ± 2.8 | 24.2 ± 0.3 | 37.5 ± 1.9 | 49.8 ± 1.8 | 23.9 ± 0.7 | – | – |
| CC(C)CCC[C@@H](C)[C@H]1CC[C@H]2[C@@H]3CC=C4C[C@@H](O)CC[C@]4(C)[C@H]3CC[C@]12C [cholesterol] | – | – | – | – | – | – | – | – | – | – | critical micellar concentration (CMC) [3]: 25 to 40 nM |
| SGGKYVDSEGHLYTVPIRE [N-Cav2-20, caveolin-1 N-terminal peptide aa 2–20] | 16.5 ± 0.9% | 18.5 ± 1.9 | 18.9 ± 2.8 | 34.7 ± 6.0 | 46.3 ± 7.2 | 21.7 ± 0.8 | 37.7 ± 1.9 | 47.6 ± 1.8 | 23.6 ± 2.6 | – | fold increase in affinity in presence of SUV over absence of membranes (NSP4_112-140 [4]): ~3 fold |
| CN(C)CCCN1c2ccccc2Sc2ccc(Cl)cc21 [Chlorpromazine] | – | – | – | – | – | – | – | – | – | Normal NSP4 transport to the PM. | – |
| C[C@@H]1[C@H](O)[C@@H](C)/C=C/C=C/CC/C=C/C=C/C=C/C=C/C(O[C@H]2O[C@H](C)[C@@H](O)[C@H](N)[C@@H]2O)CC2O[C@](O)(CC(O)C(O)CCC(O)CC(O)CC(O)CC(=O)O[C@H]1C)CC(O)C2C(=O)O (stereo partly shown) [Nystatin] | – | – | – | – | – | – | – | – | – | Disrupted NSP4 transport | – |
| MIDKLTTREIEQVELLKRIYDKLTVQTTG (also called NSP4 (aa 112-140)) [NSP4_(112-140) peptide (rotavirus nonstructural protein 4, aa 112-140)] | – | – | – | – | – | – | – | – | – | – | Kd [5]: 40 nM |
